Measurements taken from PMC10254045, “Elaboration of the Effective Multi-Target Therapeutic Platform for the Treatment of Alzheimer’s Disease Based on Novel Monoterpene-Derived Hydroxamic Acids” (International Journal of Molecular Sciences, 2023).

Tests used:
HDAC6 = biological target: T1, HDAC6 (Homo sapiens, UniProt Q9UBN7); assay: Fluorimetric measurement of HDAC6 activity (FLUOR DE LYS kit); format: biochemical; conditions: Table 1; read-out: HDAC6-Inhibitory Effect, IC50
T1 construct: purchased Enzo Life Sciences
T1 sequence (Q9UBN7 1-1215): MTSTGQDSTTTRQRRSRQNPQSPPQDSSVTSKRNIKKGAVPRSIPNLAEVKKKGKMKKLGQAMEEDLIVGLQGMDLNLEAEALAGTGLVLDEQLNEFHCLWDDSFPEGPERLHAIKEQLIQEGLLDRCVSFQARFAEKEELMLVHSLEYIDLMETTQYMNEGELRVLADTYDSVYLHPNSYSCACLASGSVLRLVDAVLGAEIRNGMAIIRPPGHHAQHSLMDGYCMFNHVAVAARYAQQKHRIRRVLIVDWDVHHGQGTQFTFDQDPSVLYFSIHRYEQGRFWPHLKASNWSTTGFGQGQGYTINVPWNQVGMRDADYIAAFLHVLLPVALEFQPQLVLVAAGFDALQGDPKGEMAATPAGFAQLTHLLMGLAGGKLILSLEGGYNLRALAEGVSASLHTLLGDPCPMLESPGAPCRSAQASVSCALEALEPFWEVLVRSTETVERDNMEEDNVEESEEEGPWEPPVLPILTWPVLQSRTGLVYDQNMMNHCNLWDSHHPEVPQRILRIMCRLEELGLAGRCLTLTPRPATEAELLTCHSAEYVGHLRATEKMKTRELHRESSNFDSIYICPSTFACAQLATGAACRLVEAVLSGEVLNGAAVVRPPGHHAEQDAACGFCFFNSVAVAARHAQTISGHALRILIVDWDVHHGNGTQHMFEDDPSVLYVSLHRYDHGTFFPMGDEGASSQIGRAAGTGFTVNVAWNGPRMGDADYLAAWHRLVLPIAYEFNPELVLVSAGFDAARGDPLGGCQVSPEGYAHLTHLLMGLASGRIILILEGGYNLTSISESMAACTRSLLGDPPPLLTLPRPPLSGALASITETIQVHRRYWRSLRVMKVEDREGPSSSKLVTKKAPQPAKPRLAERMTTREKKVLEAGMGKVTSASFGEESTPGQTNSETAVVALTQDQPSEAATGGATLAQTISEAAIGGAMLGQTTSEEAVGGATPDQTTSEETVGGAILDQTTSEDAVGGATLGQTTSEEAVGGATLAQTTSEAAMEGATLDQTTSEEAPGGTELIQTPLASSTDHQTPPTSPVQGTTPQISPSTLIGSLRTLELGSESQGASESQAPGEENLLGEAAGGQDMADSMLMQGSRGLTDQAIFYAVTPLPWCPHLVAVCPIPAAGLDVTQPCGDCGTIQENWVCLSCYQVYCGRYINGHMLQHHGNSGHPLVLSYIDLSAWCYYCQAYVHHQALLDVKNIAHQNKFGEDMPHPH

IC50 (HDAC6): 3.85 ± 0.24 µM
melting point: 179.9 °C
Compound: C=C(C)[C@@H]1CC=C(CNC(=O)/C=C/c2ccc(C(=O)NO)cc2)CC1 [Compound 35a, (S,E)-N-hydroxy-4-(3-oxo-3-(((4-(prop-1-en-2-yl)cyclohex-1-en-1-yl)methyl)amino)prop-1-en-1-yl)benzamide]
